Measurements from patent US20240270821A1, “GIP/GLP1/GCG TRI-RECEPTOR AGONISTS AND USES THEREOF” (priority 2023, published 2024).
Like-named read-outs stand apart in the source and are kept apart here. Marks after values point to notes of the source that are not given here. Starred links: 1 amine or outer side, 2 acyl side, 3 side chain; linkers in the order of their positions; H or OH if unused. Non-standard residues stand in square brackets, D forms with d. Groups on a side chain read outwards from the residue. *: point of attachment. C20 diacid = O=C(O)CCCCCCCCCCCCCCCCCCC(=O)*; C18 diacid = O=C(O)CCCCCCCCCCCCCCCCC(=O)*; αMePhe(2-F) = C[C@](N)(Cc1ccccc1F)C(=O)O; γGlu = O=C(O)[C@H](CCC(=O)[*:2])N[*:1]; αMeL = CC(C)C[C@](C)(N)C(=O)O; Orn = NCCC[C@H](N)C(=O)O; Dap = NC[C@H](N)C(=O)O; AEEA = NCCOCCOCC(=O)O; Aib = CC(C)(N)C(=O)O

Assays:
hGIPR [1] = molecular target: T1, hGIPR (Homo sapiens, UniProt P48546); experiment: Functional cAMP activation in the presence of 0.1% casein (no HSA); type: cell-based;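 further: intracellular cAMP rise after 30 min at 37 °C read by HTRF against a standard curve, scaled between buffer alone (0%) and top control ligand concentration (100%), four-parameter fit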
T1 sequence (P48546 22-466): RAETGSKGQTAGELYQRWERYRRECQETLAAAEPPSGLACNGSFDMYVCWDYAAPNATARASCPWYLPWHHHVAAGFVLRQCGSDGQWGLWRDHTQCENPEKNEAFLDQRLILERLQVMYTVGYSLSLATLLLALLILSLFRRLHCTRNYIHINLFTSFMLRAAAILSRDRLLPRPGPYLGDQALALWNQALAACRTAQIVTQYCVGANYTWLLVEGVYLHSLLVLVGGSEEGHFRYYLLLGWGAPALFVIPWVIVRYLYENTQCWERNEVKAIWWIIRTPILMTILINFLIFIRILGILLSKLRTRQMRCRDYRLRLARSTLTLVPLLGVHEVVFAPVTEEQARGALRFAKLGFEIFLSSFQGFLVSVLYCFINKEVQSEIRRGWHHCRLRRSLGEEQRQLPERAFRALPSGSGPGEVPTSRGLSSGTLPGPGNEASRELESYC

hGcgR = hGcgR (Homo sapiens, UniProt P47871); experiment: as above; type: cell-based;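 further: intracellular cAMP rise after 30 min at 37 °C, read by HTRF against a cAMP standard curve, scaled from buffer only (0%) to maximal control ligand response (100%)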
hGcgR, sequence (P47871 26-477): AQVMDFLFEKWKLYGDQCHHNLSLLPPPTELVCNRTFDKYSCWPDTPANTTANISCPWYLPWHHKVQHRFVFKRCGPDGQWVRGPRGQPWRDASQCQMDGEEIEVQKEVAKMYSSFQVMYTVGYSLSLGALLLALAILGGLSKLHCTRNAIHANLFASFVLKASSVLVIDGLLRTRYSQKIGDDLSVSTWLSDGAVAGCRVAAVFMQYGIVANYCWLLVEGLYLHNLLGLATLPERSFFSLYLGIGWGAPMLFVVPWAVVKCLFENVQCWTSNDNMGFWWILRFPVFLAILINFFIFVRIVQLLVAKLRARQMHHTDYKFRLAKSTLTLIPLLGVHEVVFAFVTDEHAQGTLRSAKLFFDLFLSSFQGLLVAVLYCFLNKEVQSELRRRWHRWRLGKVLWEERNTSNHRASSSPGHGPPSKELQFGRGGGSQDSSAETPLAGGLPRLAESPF

human GcgR = human GcgR (Homo sapiens, UniProt P47871); experiment: Functional cAMP activity in the presence of 1% HSA; type: cell-based
human GcgR, sequence (P47871 26-477): as above

hGIPR [2] = molecular target: T1, hGIPR; experiment: Functional cAMP activity in the presence of 1% HSA; type: cell-based
hGLP-1R [3] = molecular target: T2, hGLP-1R (Homo sapiens, UniProt P43220); experiment: GLP-1R CHO cell β-arrestin recruitment assay; type: cell-based; set-up: host or cells: CHO-K1 (PathHunter, assay-ready frozen cells);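 further: luminescence read after 90 min peptide exposure at 37 °C and a further 60 min with detection reagent at room temperature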
Target sequence in this assay (P43220 24-463): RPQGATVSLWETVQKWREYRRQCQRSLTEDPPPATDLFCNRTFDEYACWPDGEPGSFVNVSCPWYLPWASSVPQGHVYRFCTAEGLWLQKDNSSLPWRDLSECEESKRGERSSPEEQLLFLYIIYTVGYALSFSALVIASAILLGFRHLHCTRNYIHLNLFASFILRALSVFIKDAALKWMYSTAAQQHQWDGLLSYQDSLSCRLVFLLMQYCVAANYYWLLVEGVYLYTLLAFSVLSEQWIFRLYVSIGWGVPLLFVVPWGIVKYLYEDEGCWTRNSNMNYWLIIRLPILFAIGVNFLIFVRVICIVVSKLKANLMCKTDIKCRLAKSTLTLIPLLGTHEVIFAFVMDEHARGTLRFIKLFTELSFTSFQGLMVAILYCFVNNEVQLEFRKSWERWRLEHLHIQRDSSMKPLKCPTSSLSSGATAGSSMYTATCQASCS
Target sequence in this assay (P32121 whole entry partner): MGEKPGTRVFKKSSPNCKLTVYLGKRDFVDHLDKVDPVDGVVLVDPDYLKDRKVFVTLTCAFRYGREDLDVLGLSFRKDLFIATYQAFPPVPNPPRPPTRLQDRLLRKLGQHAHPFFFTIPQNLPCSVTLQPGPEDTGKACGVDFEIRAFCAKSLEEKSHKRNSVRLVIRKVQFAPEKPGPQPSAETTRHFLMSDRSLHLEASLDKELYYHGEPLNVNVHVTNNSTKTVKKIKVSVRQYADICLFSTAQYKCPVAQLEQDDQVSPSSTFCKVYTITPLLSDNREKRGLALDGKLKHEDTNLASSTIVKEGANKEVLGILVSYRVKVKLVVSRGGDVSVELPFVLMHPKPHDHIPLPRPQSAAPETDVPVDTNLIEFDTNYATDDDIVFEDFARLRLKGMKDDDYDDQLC

[4] = Body weight in diet-induced obese C57BL/6 mice; type: in vivo; conditions: percent of starting weight, DIO mice, mean ± SEM n=5
Procedure: To investigate the effect of the polypeptides as described herein on weight loss, exemplary polypeptides are dosed to C57BL/6 diet-induced obese (DIO) mice. Specifically, DIO male C57BL/6 mice (Taconic, Germantown, NY) maintained on a calorie-rich diet are used in the following studies. Mice are individually housed in a temperature-controlled (24° C.) facility with 12-hour light/dark cycle (lights on 22:00) and free access to food (TD95217) and water. After a minimum of 2 weeks acclimation to the facility, the mice are randomized according to their body weight, so each experimental group of animals would have similar starting body weight. The body weights range from 41 to 50 g. All groups contain 5 mice. […] Treatments are administered by subcutaneous (SC) injection (10 mL/kg) to ad libitum fed DIO mice 30 to 90 minutes prior to the onset of the dark cycle either once daily (QD) or once every 3 days (Q3D) for 9-16 days. Body weight and food intake are measured daily throughout the study. Body weight is presented as percent of the starting weight. […] Data are presented as mean±SEM of 5 animals per group in Table 7 below. Statistical analysis is performed using repeated measures ANOVA, followed by Dunnett's method comparison test.

hGLP-1R [5] = molecular target: T2, hGLP-1R; experiment: Functional cAMP activity in the presence of 1% HSA; type: cell-based
Target sequence in this assay (P43220 24-463): as the sequence (P43220 24-463) above

hGLP-1R [6] = molecular target: T2, hGLP-1R; experiment: Functional cAMP activation in the presence of 0.1% casein (no HSA); type: cell-based;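 on Relative cAMP EC50, hGLP-1R: intracellular cAMP rise after 30 min at 37 °C read by HTRF, normalized between buffer only (0%) and maximal control ligand (100%), four-parameter variable-slope fit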;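 on Relative cAMP EC50, hGcgR: intracellular cAMP rise after 30 min at 37 °C, read by HTRF against a cAMP standard curve, scaled from buffer only (0%) to maximal control ligand response (100%)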
Target sequence in this assay (P43220 24-463): as above

human GLP1-R = human GLP1-R (Homo sapiens, UniProt P43220); experiment: GLP1-R internalization assay in HEK293 cells; type: cell-based; conditions: for Internalization % TOP: normalized to maximum concentration of GLP-1 (100%)
human GLP1-R, sequence (P43220 24-463): as above

[7] = system: Intestinal organoid from Göttingen minipig jejunum tissue, 2D monolayer; experiment: Cell based in vitro permeability (Papp) assay; type: in vitro ADME
Summary of the method: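 Papp calculated from LC/MS peptide levels in apical and basal compartments. Basal sampling at 20 min with C10 present, across monolayers grown from dissociated minipig jejunal organoids in transwells.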

[8] = in the presence of 0.1% casein (no HSA), geometric mean, read-out: Relative cAMP EC50, hGIPR
[9] = in the presence of 0.1% casein (no HSA), geometric mean, read-out: Relative cAMP EC50, hGcgR
[10] = read-out: cAMP Rel EC50, hGLP-1R
[11] = in the presence of 0.1% casein (no HSA), geometric mean, read-out: Relative cAMP EC50, hGLP-1R
[12] = HEK293 cells expressing SNAP-GLP-1R, read-out: GLP1R Internalization EC50

EC50 (hGIPR [1]; [8]) [nM]	EC50 (hGcgR; [9]) [nM]	EC50 (human GcgR; read-out: cAMP Rel EC50, hGcgR) [nM]	EC50 (hGIPR [2]; read-out: cAMP Rel EC50, hGIPR) [nM]	EC50 (hGLP-1R [3]; CHO-K1 PathHunter, β-arrestin-2, 0.1% casein, read-out: hGLP1R β-arrestin Rel EC50) [nM]	% Stimulation Max (hGLP-1R [3]; normalized to GLP-1(7-36) as maximum control) [%]	EC50 (hGLP-1R [5]; [10]) [nM]	EC50 (hGLP-1R [6]; [11]) [nM]	EC50 (human GLP1-R; [12]) [nM]	Internalization % TOP (human GLP1-R) [%]	Substance	Body weight (%) ([4]; 10 nmol/kg SC QD, 16 days)	Body weight (%) ([4]; 10 nmol/kg SC Q3D, 14 days)	EC50 (human GLP1-R) [nM]	EC50 (hGIPR [1]) [nM]	EC50 (hGcgR) [nM]	EC50 (human GcgR) [nM]	EC50 (hGIPR [2]) [nM]	EC50 (hGLP-1R [5]) [nM]	EC50 (hGLP-1R [6]) [nM]	Relative Papp (Compared to internal standard) [7]
0.43	2.68	878	53.4	3.94	83.5	90	0.34			H-H[Aib]QGT[αMePhe(2-F)]TSDYSILLDKK([AEEA-γGlu-C20 diacid])AA[Aib]AFIEYLIETGPSSGEPPPSEG-NH2 [Example 290]	65.40 ± 3.45									
0.218	12.4	1510	29.1			324	2.7	87.6	72.5	H-Y[Aib]QGTFTSDFSK[αMeL]LDKK([AEEA-γGlu-C20 diacid])AQ[Aib]AFIEWLLAGGPSSGEPPPSGE-NH2 [Example 21]		83.70 +/− 0.86**** %								
0.503	3.97	901	67.8			1050	4.12	86.4	42.6	H-Y[Aib]QGTFTSDFS[Orn][αMeL]LDKK([AEEA-γGlu-C18 diacid])AQ[Aib]AFIEWLLEGGESSGAPPPEGS-NH2 [Example 125]		97.90 +/− 0.32%								

The remaining lines, values behind:

Substance	EC50 (hGIPR [1]; [8]) [nM]	EC50 (hGcgR; [9]) [nM]	EC50 (human GcgR; read-out: cAMP Rel EC50, hGcgR) [nM]	EC50 (hGIPR [2]; read-out: cAMP Rel EC50, hGIPR) [nM]	EC50 (hGLP-1R [3]; CHO-K1 PathHunter, β-arrestin-2, 0.1% casein, read-out: hGLP1R β-arrestin Rel EC50) [nM]	% Stimulation Max (hGLP-1R [3]; normalized to GLP-1(7-36) as maximum control) [%]	EC50 (hGLP-1R [5]; [10]) [nM]	EC50 (hGLP-1R [6]; [11]) [nM]	EC50 (human GLP1-R; [12]) [nM]	Internalization % TOP (human GLP1-R) [%]	Body weight (%) ([4]; 10 nmol/kg SC QD, 16 days)	Body weight (%) ([4]; 10 nmol/kg SC Q3D, 14 days)	EC50 (human GLP1-R) [nM]	EC50 (hGIPR [1]) [nM]	EC50 (hGcgR) [nM]	EC50 (human GcgR) [nM]	EC50 (hGIPR [2]) [nM]	EC50 (hGLP-1R [5]) [nM]	EC50 (hGLP-1R [6]) [nM]	Relative Papp (Compared to internal standard) [7]
H-Y[Aib]QGTFTSDFSK[αMeL]LDKK([AEEA-γGlu-C18 diacid])AQ[Aib]AFIEYLLAGGPSSGEPPPSGE-NH2 [Example 23]	0.178	5.13	573	25.5			308	2.98	51.5	67.2		80.86 +/− 1.25**** %								
H-Y[Aib]QGTFTSDFSK[αMeL]LDKK([AEEA-γGlu-C20 diacid])AQQAFIEYLLA[Aib]GPSSGAPPPSEG-NH2 [Example 30]										72.8		90.12 +/− 0.30** %	70.4	0.247	5.22	969	72.9	806	3.18	
H-Y[Aib]QGTFTSDFS[Dap][αMeL]LDKK([AEEA-γGlu-C18 diacid])AQ[Aib]AFIEYLLE[Aib]GPSSGAPPPSGS-NH2 [Example 134]	0.152	7.28	1200	38.3			549	3.36	67.9	22.3		93.28 +/− 1.38%								0.07
H-Y[Aib]QGTFTSDFS[Orn][αMeL]LDKK([AEEA-AEEA-γGlu-C18 diacid])AQ[Aib]AFIEYLLE[Aib]GPSSGAPPPSGS-NH2 [Example 75]	0.0578	4.51	1040	16.8			878	4.4	61.8	51.9		96.28 +/− 1.51%								
H-Y[Aib]QGTFTSDFS[Orn][αMeL]LDKK([AEEA-γGlu-C18 diacid])AQ[Aib]AFIEWLLEGGHSSGAPPPEGS-NH2 [Example 126]	0.264	6.81	1120	40.3			838	3.97	63.2	38.8		95.68 +/− 0.90%								
